Data taken from US20250296971A1, “GASTRIC INHIBITORY PEPTIDE RECEPTOR LIGANDS” (priority 2021, published 2025).
*1 amine or outer side, *2 acyl side, *3 side chain or, on linkers, in order; H or OH if unused. Where a SMILES comes first, the peptide text is derived from it. Bridges are numbered along the chain shown (N, C = ends). [ ]: non-standard residue; d: D form. The star is where a group is joined. Ttds = 1,13-diamino-4,7,10-trioxatridecan-succinamic acid, NCCCOCCOCCOCCCNC(=O)CCC(=O)*; X3 = O=C(O)CN1CCN(CC(=O)O)CCN(CC(=O)NCCCOCCOCCOCCCN*)CCN(CC(=O)O)CC1; Pro(trans-4-NH2) = O=C([C@@H]1C[C@@H](N[*:3])CN1[*:1])[*:2]; DOTA = O=C(O)CN1CCN(CC(=O)O)CCN(CC(=O)*)CCN(CC(=O)O)CC1; Trp(5-Cl) = N[C@@H](Cc1c[nH]c2ccc(Cl)cc12)C(=O)O; Phe(3,5-Cl2) = N[C@@H](Cc1cc(Cl)cc(Cl)c1)C(=O)O; Pyridine(2,6-diCH2) = c1cc(C[*:1])nc(C[*:2])c1; Phe(2-Cl) = N[C@@H](Cc1ccccc1Cl)C(=O)O; 1Nal = N[C@@H](Cc1cccc2ccccc12)C(=O)O; Pro(3S-OH) = O=C(O)[C@H]1NCC[C@@H]1O; mXylylene = c1cc(C[*:1])cc(C[*:2])c1; Hyp = O=C(O)[C@@H]1C[C@@H](O)CN1; Cysteamide = C(CS[*:3])N[*:1]; Suc = O=C(CCC(=O)[*:2])[*:1]; hLeu = CC(C)CC[C@H](N)C(=O)O; αMeS = C[C@](N)(CO)C(=O)O; Api = NC1(C(=O)O)CCNCC1; Thp = NC1(C(=O)O)CCOCC1; Aib = CC(C)(N)C(=O)O; Sar = CNCC(=O)O

T1: GIPR (CHO-K1-hGIPR cells) (Homo sapiens, UniProt P48546)
T1 construct: host or cells: CHO-K1
T1 sequence (P48546 22-466): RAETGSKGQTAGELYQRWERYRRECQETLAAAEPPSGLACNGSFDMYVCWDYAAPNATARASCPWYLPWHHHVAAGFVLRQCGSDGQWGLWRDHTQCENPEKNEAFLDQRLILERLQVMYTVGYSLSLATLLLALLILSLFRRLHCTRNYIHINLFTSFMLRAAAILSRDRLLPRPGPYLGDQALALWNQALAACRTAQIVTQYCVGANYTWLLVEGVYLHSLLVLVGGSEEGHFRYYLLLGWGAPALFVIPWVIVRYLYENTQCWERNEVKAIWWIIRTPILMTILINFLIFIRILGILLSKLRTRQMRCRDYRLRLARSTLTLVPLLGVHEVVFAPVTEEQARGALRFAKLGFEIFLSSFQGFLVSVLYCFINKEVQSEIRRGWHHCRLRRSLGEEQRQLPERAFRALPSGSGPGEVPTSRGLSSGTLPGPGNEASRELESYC


Target: T1, GIPR (CHO-K1-hGIPR cells)
Experiment: FACS binding assay
Conditions: competition with 20 nM GIP-057, 4° C. for 1 hour, read-out: pIC50 Category (converted)
Summary of the method: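 Median fluorescence in the APC channel, measured on washed CHO-K1 cells overexpressing human GIPR, was fitted by four-parameter logistic regression against peptide concentration to yield EC50 or IC50 values. Secondary labelling used APC-streptavidin (1 μg/mL, 30 min, ice).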

| IC50 [nM] | Molecule |
| --- | --- |
| 10 to 79.4 | CC[C@H](C)[C@@H]1NC(=O)[C@H](CC(C)C)NC(=O)C2(CCN(C(=O)CN3CCN(CC(=O)O)CCN(CC(=O)O)CCN(CC(=O)O)CC3)CC2)NC(=O)[C@@H](NC(=O)[C@@H](CC(C)C)NC(=O)[C@H](CCC(=O)O)NC(=O)[C@@H]2C[C@@H](O)CN2C(=O)[C@H](Cc2c[nH]c3ccc(Cl)cc23)NC(=O)[C@H](Cc2ccccc2Cl)NC(=O)[C@H](CC(=O)O)NC(C)=O)CSCc2cccc(n2)CSC[C@@H](C(N)=O)NC1=O [GIP-392, Ac-Asp-Ocf-5Clw-Hyp-Glu-leu-[Cys(2Lut)-Apc(DOTA)-Leu-Ile-Cys]-NH2] (Ac-D[Phe(2-Cl)][Trp(5-Cl)][Hyp]E[dL]C[Api](DOTA)LIC-NH2; linker 7-11 via Pyridine(2,6-diCH2)) |
| 10 to 79.4 | CC(=O)N[C@@H](CC(=O)O)C(=O)N[C@@H](Cc1c[nH]c2ccccc12)C(=O)N[C@@H](Cc1c[nH]c2ccc(Cl)cc12)C(=O)N1C[C@H](O)C[C@H]1C(=O)N[C@@H](CCC(=O)O)C(=O)N[C@H](CC(C)C)C(=O)N[C@H]1CSCc2cccc(n2)CSC[C@@H](C(N)=O)NC(=O)[C@H](Cc2ccccc2)NC(=O)[C@H](CC(C)C)NC(=O)C2(CCN(C(=O)CN3CCN(CC(=O)O)CCN(CC(=O)O)CCN(CC(=O)O)CC3)CC2)NC1=O [GIP-393, Ac-Asp-Trp-5Clw-Hyp-Glu-leu-[Cys(2Lut)-Apc(DOTA)-Leu-Phe-Cys]-NH2] (Ac-DW[Trp(5-Cl)][Hyp]E[dL]C[Api](DOTA)LFC-NH2; linker 7-11 via Pyridine(2,6-diCH2)) |
| 10 to 79.4 | CC[C@H](C)[C@@H]1NC(=O)[C@H](CC(C)C)NC(=O)C(C)(C)NC(=O)[C@@H](NC(=O)[C@H](CCC(C)C)NC(=O)[C@H](CCC(=O)O)NC(=O)[C@@H]2C[C@@H](NC(=O)CN3CCN(CC(=O)O)CCN(CC(=O)O)CCN(CC(=O)O)CC3)CN2C(=O)[C@H](Cc2cccc3ccccc23)NC(=O)[C@H](Cc2c[nH]c3ccccc23)NC(=O)[C@H](CC(=O)O)NC(C)=O)CSCc2cccc(c2)CSC[C@@H](C(N)=O)NC1=O [GIP-394, Ac-Asp-Trp-1Ni-Tap(DOTA)-Glu-Hle-[Cys(3MeBn)-Aib-Leu-Ile-Cys]-NH2] (Ac-DW[1Nal][Pro(trans-4-NH2)](DOTA)E[hLeu]C[Aib]LIC-NH2; linker 7-11 via mXylylene) |
| 10 to 79.4 | CC[C@H](C)[C@@H]1NC(=O)[C@H](CC(C)C)NC(=O)C2(CCOCC2)NC(=O)[C@@H](NC(=O)[C@@H](CC(C)C)NC(=O)[C@H](Cc2ccccc2)NC(=O)[C@@H]2C[C@@H](O)CN2C(=O)[C@H](Cc2c[nH]c3ccc(Cl)cc23)NC(=O)[C@H](Cc2c[nH]c3ccccc23)NC(=O)[C@H](CC(=O)O)NC(C)=O)CSCc2cccc(n2)CSC[C@@H](C(N)=O)NC1=O [GIP-396, Ac-Asp-Trp-5Clw-Hyp-Phe-leu-[Cys(2Lut)-Thp-Leu-Ile-Cys]-NH2] (Ac-DW[Trp(5-Cl)][Hyp]F[dL]C[Thp]LIC-NH2; linker 7-11 via Pyridine(2,6-diCH2)) |
| 10 to 79.4 | CC[C@H](C)[C@@H]1NC(=O)[C@H](CC(C)C)NC(=O)C2(CCOCC2)NC(=O)[C@@H](NC(=O)[C@@H](CC(C)C)NC(=O)[C@H](Cc2c[nH]c3ccccc23)NC(=O)[C@@H]2C[C@@H](O)CN2C(=O)[C@H](Cc2c[nH]c3ccc(Cl)cc23)NC(=O)[C@H](Cc2c[nH]c3ccccc23)NC(=O)[C@H](CC(=O)O)NC(C)=O)CSCc2cccc(n2)CSC[C@@H](C(N)=O)NC1=O [GIP-397, Ac-Asp-Trp-5Clw-Hyp-Trp-leu-[Cys(2Lut)-Thp-Leu-Ile-Cys]-NH2] (Ac-DW[Trp(5-Cl)][Hyp]W[dL]C[Thp]LIC-NH2; linker 7-11 via Pyridine(2,6-diCH2)) |
| 10 to 79.4 | CC[C@H](C)[C@@H]1NC(=O)[C@H](CC(C)C)NC(=O)C2(CCOCC2)NC(=O)[C@@H](NC(=O)[C@@H](CC(C)C)NC(=O)[C@@H]2CCCN2C(=O)[C@@H]2C[C@@H](O)CN2C(=O)[C@H](Cc2c[nH]c3ccc(Cl)cc23)NC(=O)[C@H](Cc2c[nH]c3ccccc23)NC(=O)[C@H](CC(=O)O)NC(C)=O)CSCc2cccc(n2)CSC[C@@H](C(N)=O)NC1=O [GIP-398, Ac-Asp-Trp-5Clw-Hyp-Pro-leu-[Cys(2Lut)-Thp-Leu-Ile-Cys]-NH2] (Ac-DW[Trp(5-Cl)][Hyp]P[dL]C[Thp]LIC-NH2; linker 7-11 via Pyridine(2,6-diCH2)) |
| 100 to 794 | CC[C@H](C)[C@@H]1NC(=O)[C@H](CC(C)C)NC(=O)C2(CCOCC2)NC(=O)[C@@H](NC(=O)[C@@H](CC(C)C)NC(=O)[C@H](CCC(=O)O)NC(=O)[C@@H]2C[C@@H](O)CN2C(=O)[C@H](Cc2c[nH]c3ccc(Cl)cc23)NC(=O)[C@H](Cc2ccccc2Cl)NC(=O)[C@H](CC(=O)O)NC(C)=O)CSCc2cccc(n2)CSC[C@@H](C(=O)N[C@H](CCCCNC(=O)CN2CCN(CC(=O)O)CCN(CC(=O)O)CCN(CC(=O)O)CC2)C(N)=O)NC1=O [GIP-399, Ac-Asp-Ocf-5Clw-Hyp-Glu-leu-[Cys(2Lut)-Thp-Leu-Ile-Cys]-lys(DOT A)-NH2] (Ac-D[Phe(2-Cl)][Trp(5-Cl)][Hyp]E[dL]C[Thp]LIC[dK](DOTA)-NH2; linker 7-11 via Pyridine(2,6-diCH2)) |
| 100 to 794 | CC[C@H](C)[C@@H]1NC(=O)[C@H](CC(C)C)NC(=O)C2(CCN(C(=O)CN3CCN(CC(=O)O)CCN(CC(=O)O)CCN(CC(=O)O)CC3)CC2)NC(=O)[C@@H](NC(=O)[C@H](CCC(C)C)NC(=O)[C@H](CCC(=O)O)NC(=O)[C@@H]2CCCN2C(=O)[C@H](Cc2cccc3ccccc23)NC(=O)[C@H](Cc2c[nH]c3ccccc23)NC(=O)[C@H](CC(=O)O)NC(C)=O)CSCc2cccc(c2)CSC[C@@H](C(N)=O)NC1=O [GIP-400, Ac-Asp-Trp-1Ni-Pro-Glu-Hle-[Cys(3MeBn)-Apc(DOTA)-Leu-Ile-Cys]-NH2] (Ac-DW[1Nal]PE[hLeu]C[Api](DOTA)LIC-NH2; linker 7-11 via mXylylene) |
| 10 to 79.4 | CC[C@H](C)[C@@H]1NC(=O)[C@H](CC(C)C)NC(=O)C2(CCOCC2)NC(=O)[C@@H](NC(=O)[C@@H](CC(C)C)NC(=O)[C@H](CCC(=O)O)NC(=O)[C@@H]2C[C@@H](O)CN2C(=O)[C@H](Cc2cc(Cl)cc(Cl)c2)NC(=O)[C@H](Cc2c[nH]c3ccccc23)NC(=O)[C@H](CC(=O)O)NC(=O)CCC(=O)NCCCOCCOCCOCCCNC(=O)CN2CCN(CC(=O)O)CCN(CC(=O)O)CCN(CC(=O)O)CC2)CSCc2cccc(n2)CSC[C@@H](C(N)=O)NC1=O [GIP-401, DOTA-Ttds-Asp-Trp-Egn-Hyp-Glu-leu-[Cys(2Lut)-Thp-Leu-Ile-Cys]-NH2] ({X3-Suc}-DW[Phe(3,5-Cl2)][Hyp]E[dL]C[Thp]LIC-NH2; linker 7-11 via Pyridine(2,6-diCH2)) |
| 10 to 79.4 | CC[C@H](C)[C@@H]1NC(=O)[C@H](CC(C)C)NC(=O)C2(CCOCC2)NC(=O)[C@@H](NC(=O)[C@@H](CC(C)C)NC(=O)[C@H](CCC(=O)O)NC(=O)[C@@H]2C[C@@H](NC(=O)CN3CCN(CC(=O)O)CCN(CC(=O)O)CCN(CC(=O)O)CC3)CN2C(=O)[C@H](Cc2cc(Cl)cc(Cl)c2)NC(=O)[C@H](Cc2c[nH]c3ccccc23)NC(=O)[C@H](CC(=O)O)NC(C)=O)CSCc2cccc(n2)CSC[C@@H](C(N)=O)NC1=O [GIP-402, Ac-Asp-Trp-Egn-Tap(DOTA)-Glu-leu-[Cys(2Lut)-Thp-Leu-Ile-Cys]-NH2] (Ac-DW[Phe(3,5-Cl2)][Pro(trans-4-NH2)](DOTA)E[dL]C[Thp]LIC-NH2; linker 7-11 via Pyridine(2,6-diCH2)) |

Same assay, conditions: competition with 20 nM GIP-057, 4° C., 1 hour

| pIC50 Category | Molecule |
| --- | --- |
| B (pIC50 values between 7.1 and 8.0) | HO-Succinyl-Trp-5Clw-Hyp-Glu-leu-[Cys(2Lut)-Apc(MeO2kDaPEGAc)-Leu-Ile-Cys]-APAc-Lys(DOTA)-NH2 [GIP-143] |
| B (pIC50 values between 7.1 and 8.0) | HO-Succinyl-Trp-5Clw-Hyp-Glu-leu-[Cys(2Lut)-Thp-Leu-Ile-Cys]-APAc-lys(MeO2kDaPEGAc)-Lys(DOTA)-NH2 [GIP-144] |
| A (pIC50 values>8.0) | MeO2kDaPEGAc-Asp-Trp-5Clw-Hyp-Glu-leu-[Cys(2Lut)-Thp-Leu-Ile-Cys]-lys(DOTA)-NH2 [GIP-120] |

Target: human Gastric Inhibitory Peptide Receptor (human) (UniProt P48546)
Experiment: FACS competition with GIP-057 on CHO-K1-hGIPR cells; pIC50 category A: >8.0
Conditions: not given

| pIC50 [pic50] | Molecule |
| --- | --- |
| > 8 | Ac-Cya-Trp-5Clw-Hyp-Glu-leu-[Cys(2Lut)-Thp-Leu-Ile-Cys]-NH2 (peptide) |
| > 8 | DOTA-APAc-Asp-Trp-5Clw-Hyp-Glu-leu-[Cys(2Lut)-Apc(AGLU-Glutar)-Leu-Ile-Cys]-APAc-glu(AGLU)-NH2 (peptide) |
| > 8 | DOTA-Asp-Trp-5Clw-Hyp-Glu-leu-[Cys(2Lut)-Thp-Leu-Ile-Cys]-NH2 (peptide) |
| > 8 | {DOTA-Ttds}-DW[Trp(5-Cl)][Pro(3S-OH)]E[dL]C[Aib]LI[Cysteamide] (linker 7-11 via mXylylene) [DOTA-Ttds-Asp-Trp-5Clw-H3p-Glu-leu-[Cys(3MeBn)-Aib-Leu-Ile-AET]] |
| > 8 | {DOTA-Ttds}-DW[Trp(5-Cl)]PE[dL]C[αMeS]LI[Cysteamide] (linker (positions not given here) via mXylylene; not fully specified (bridges); printed as DOTA-Ttds-Asp-Trp-5Clw-Pro-Glu-leu-[Cys(3MeBn)-Ams-Leu-Ile-AET]) [DOTA-Ttds-Asp-Trp-5Clw-Pro-Glu-leu-[Cys(3MeBn)-Ams-Leu-Ile-AET]] |
| > 8 | {DOTA-Ttds}-DW[Trp(5-Cl)][Sar]E[dL]C[Aib]LI[Cysteamide] (linker (positions not given here) via mXylylene; not fully specified (bridges); printed as DOTA-Ttds-Asp-Trp-5Clw-Nmg-Glu-leu-[Cys(3MeBn)-Aib-Leu-Ile-AET]) [DOTA-Ttds-Asp-Trp-5Clw-Nmg-Glu-leu-[Cys(3MeBn)-Aib-Leu-Ile-AET]] |
